PubChem BioAssay (NCI)
“And” between values parts separate entries of the source, which are not always exact repeats. Identical values can stand only once.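 Tested at 5 concentrations; 48 h exposure; 96-well plates; endpoints linearly interpolated, else capped at highest concentration. GI50 is the concentration that inhibits growth by half. TGI is the concentration that stops growth completely.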

Tests used:
Test in all cases: NCI tumour cell line growth inhibition, 48 h
[1] = test system: MDA-MB-435
[2] = test system: SK-MEL-5 melanoma
[3] = test system: K-562 leukemia
[4] = test system: HL-60(TB) leukemia
[5] = test system: MOLT-4 leukemia
[6] = test system: SN12C renal
[7] = test system: MCF7 breast
[8] = test system: HOP-92 NSCLC
[9] = test system: LXFL 529 NSCLC
[10] = test system: KM20L2 colon

Row | SMILES | GI50 [1] | TGI [1] | GI50 [2] | TGI [2] | GI50 [3] | TGI [3] [µM] | GI50 [4] | TGI [4] | GI50 [5] | TGI [5] | GI50 [6] | TGI [6] | GI50 [7] | TGI [7] | GI50 [8] | TGI [8] | TGI [9] [µM] | TGI [10] [µM]
1 | C[C@]12CCc3sc(Nc4ccc(OC(F)(F)F)cc4)nc3C1=CC[C@@H]1[C@@H]2CC[C@]2(C)C(=O)CC[C@@H]12 | 2.72 µM | 10.1 µM | 2.62 µM | 7.41 µM | 1.87 µM | 6.64 | 1.93 µM | 4.44 µM | 1.53 µM | 11.9 µM | 3.44 µM | 16.1 µM | 1.82 µM | 4.14 µM | 1.43 µM | 3.44 µM | – | –
2 | CCOc1cccc(/C=N/NC(=O)c2cccc(Nc3ccnc(C(F)(F)F)c3)c2)c1O | 3.1 µM | > 51.2 µM | 0.676 µM | 7.84 µM | 1.32 µM | 30.6 | 0.262 µM | 1.01 µM | 0.232 µM | 2.08 µM | 1.66 µM | > 70.7 µM | 0.945 µM | 21.1 µM | 5.21 µM | > 100 µM | – | –
3 | CCCOC(=O)N[C@H]1CCc2c(Cl)c(OC)c(OC)c(OC)c2-c2ccc(SC)c(=O)cc21 | < 0.01 µM | < 0.01 µM | < 0.01 µM | 0.0207 µM | < 0.01 µM | > 100 | < 0.01 µM | < 0.01 µM | < 0.01 µM | 23.6 µM | < 0.0123 µM | 13.6 µM | < 0.01 µM | 13.1 µM | < 0.0119 µM | 4.65 µM | – | –
4 | C=CC[P@]1(=O)O[C@H](c2ccccc2)[C@H](C)N1C | – | – | – | > 100 µM | – | > 100 | – | > 100 µM | – | > 100 µM | – | > 100 µM | – | – | – | – | > 100 | –
5 | CN(C)Cc1cc(C(F)(F)F)ccc1C(O)(c1ccccc1)c1ccccc1 | – | 58 µM | – | 27.3 µM | – | 24.4 | – | 24.7 µM | – | 38.8 µM | – | 29.3 µM | – | 27.4 µM | – | 27 µM | – | –
6 | C=C(C)C1CC2(C)C(C)CC(O)CC2C(OC(=O)C=C(C)C)C1O (centres undefined) | – | > 100 µM | – | 49.2 µM | – | > 100 | – | 50.5 µM | – | 83.1 µM | – | > 100 µM | – | 86 µM | – | > 100 µM | – | –
7 | COc1ccc2c(c1)C(=O)/C(=C/c1cccc(OCC(=O)c3ccccc3)c1)O2 | 3.4 µM | 13.6 µM | 14.3 µM | 28.1 µM | 0.722 µM | 2.13 | 1.39 µM | 3.23 µM | 1.44 µM | 3.52 µM | 6.15 µM | 25.6 µM | 4.2 µM | 33.7 µM | 3.86 µM | 16.1 µM | – | –
8 | O=C(O)CSCCc1ccccc1 | – | > 100 µM | – | > 100 µM | – | > 100 | – | 1.98 µM | – | > 100 µM | – | > 100 µM | – | > 100 µM | – | > 100 µM | – | –
9 | CC(=O)C1C(c2ccccc2)C2(C)OC(=O)C(C#N)C12C (centres undefined) | – | – | – | > 100 µM | – | > 100 | – | > 100 µM | – | > 100 µM | – | > 100 µM | – | – | – | – | > 100 | > 100
10 | O=C1N/C(=C\[N+](=O)[O-])c2ccccc21 | – | – | – | > 100 µM | – | > 100 | – | > 100 µM | – | > 100 µM | – | > 100 µM | – | – | – | > 100 µM | > 100 | > 100
11 | COc1ccc2c(c1)NC1=C(C(=O)OC1)C2c1cc(OC)c(OC)c(OC)c1 (centres undefined) | < 0.01 µM | < 0.0164 µM | < 0.01 µM | < 0.0116 µM | < 0.01 µM | > 100 | < 0.01 µM | < 0.01 µM | < 0.01 µM | > 100 µM | < 0.01 µM | > 100 µM | < 0.01 µM | > 100 µM | < 0.0112 µM | > 100 µM | – | –
12 | Cc1cn(C2CC(OC(=O)c3ccc(Cl)cc3)C(COC(=O)c3ccc(Cl)cc3)O2)c(=O)[nH]c1=O (centres undefined) | – | > 100 µM | – | > 100 µM | – | > 100 | – | > 100 µM | – | > 100 µM | – | > 100 µM | – | > 100 µM | – | > 100 µM | – | –
13 | NC(CCCC(N)P(=O)(O)O)P(=O)(O)O (centres undefined) | – | – | – | > 100 µM | – | > 100 | – | – | – | > 100 µM | – | > 100 µM | – | – | – | > 100 µM | > 100 | –
14 | Cc1nnc(-c2ccc(C)c(-c3ccc(C(=O)Nc4cccc(C#N)c4)cc3)c2)o1 | > 25 µM | > 25 µM | > 16.2 µM | > 25 µM | > 25 µM | > 25 | > 25 µM | > 25 µM | > 25 µM | > 25 µM | > 25 µM | > 25 µM | > 25 µM | > 25 µM | > 25 µM | > 25 µM | – | –
15 | C=CC(=O)N1CCC(Oc2cc3c(Nc4ccc(Cl)c(Cl)c4F)ncnc3cc2OC)CC1 | 2.23 µM and 1.8 µM | 8.3 µM and 4.7 µM | 7.18 µM and 3.47 µM | 19.3 µM and > 9 µM | 3.98 µM and 2.68 µM | > 100 | 8.97 µM and 3.77 µM | 48.5 µM and > 10 µM | 3.38 µM and 2.13 µM | 17.9 µM and > 8.44 µM | 2.88 µM and 1.79 µM | 25.2 µM and > 10 µM | 2.05 µM and 1.42 µM | 21.7 µM and > 10 µM | 0.944 µM and 0.338 µM | 5.59 µM and 3.07 µM | – | –
16 | Cc1ccc(S(=O)(=O)N/N=C2\CCCCC23CCC(=O)NC3)cc1 (centres undefined) | – | – | – | > 100 µM | – | > 100 | – | > 100 µM | – | > 100 µM | – | > 100 µM | – | – | – | – | > 100 | > 100
17 | CCN1C(=O)c2ccc3c4c(ccc(c24)C1=O)C(=O)N(CCCNCc1ccccc1OC)C3=O | 0.173 µM | 0.322 µM | 0.164 µM | 0.319 µM | 0.936 µM | 4.27 | 1.11 µM | 3.6 µM | 0.891 µM | 4.37 µM | 0.327 µM | 1.32 µM | 0.205 µM | 0.584 µM | 2.6 µM | 5.5 µM | – | –
18 | O=C(Nc1ccc(C(F)(F)F)cc1[N+](=O)[O-])C(=O)C1NC(=S)NC1=O (centres undefined) | – | – | – | > 100 µM | – | > 100 | – | > 100 µM | – | > 100 µM | – | 5.05 µM | – | – | – | > 100 µM | > 100 | > 100
19 | N#CCC(=O)N/N=C1/C(=O)N(c2ccc(Cl)cc2)C(=O)C(=O)C1c1nc2ccccc2s1 (centres undefined) | – | – | – | > 100 µM | – | – | – | – | – | – | – | > 100 µM | – | – | – | > 100 µM | > 100 | > 100
20 | CC1(O)C(C)(O)C2(C)O[Te]3(OC12C)OC1(C)C(C)(O)C(C)(O)C1(C)O3 (centres undefined) | – | – | – | 32.7 µM | – | 39 | – | 31.5 µM | – | 34.5 µM | – | > 100 µM | – | – | – | 49.2 µM | 31.4 | –
